pEC50, pKi: −log10 of the molar value.
Assays:
[1] = biological target: T1, human native muscle receptors (Homo sapiens, UniProt P02708+P07510+Q07001); assay: Ca flux assay, TE-671 cells; type: cell-based
T1 construct: human native muscle-type nicotinic receptors (likely α1β1γδ); endogenous in cells; host or cells: TE-671 (TE671/RD)
Description: Activation of muscle-type nAChRs was established on the human clonal line TE671/RD, which is derived from an embryonal rhabdomyosarcoma (Stratton et al., Carcinogen 10: 899 (1989)). These cells express receptors that have pharmacological (Lukas, J. Pharmacol. Exp. Ther. 251: 175 (1989)), electrophysiological (Oswald et al., Neurosci. Lett. 96: 207 (1989)), and molecular biological profiles (Luther et al., J. Neurosci. 9: 1082 (1989)) similar to the muscle-type nAChR.
(R)-3-((E)-2-(Pyrrolidin-3-yl)vinyl)-5-(tetrahydropyran-4-yloxy)pyridine or a salt thereof was tested in ganglion and muscle-type nicotinic receptor ion flux assays to examine functional selectivity.

CYP2B6 = CYP2B6 (Homo sapiens, UniProt P20813); type: in vitro ADME
α4β2 = α4β2 (Homo sapiens, UniProt P17787+P43681); assay: Calcium flux assay, SH-EP1/human α4β2 cells; type: cell-based; parameters: expressed in transfected cells; host or cells: SH-EP1
Description: Cellular efficacy: The aim of these studies was to determine functional activity of (R)-3-((E)-2-(pyrrolidin-3-yl)vinyl)-5-(tetrahydropyran-4-yloxy)pyridine or a salt thereof at human recombinant α4β2 receptors.

[2] = system: rats with scopolamine-induced cognitive deficits; assay: Radial arm maze (RAM), scopolamine-induced deficit; type: in vivo, rat; settings: 0.03 mg/kg or 0.1 μmol/kg p.o. 0.5 h prior to test trial, scopolamine 0.3±0.1 mg/kg s.c.
Method: Working memory was assessed in a radial arm maze (RAM) task. The RAM task was conducted using an automated eight-arm maze (Med Associates, Inc.) The maze was located on a circular table approximately 88 cm above the floor with overhead lighting in a dedicated testing ambient and large, high contrast geometric shapes on the wall. Furthermore, additional visual cues were located at the hub entry into each arm, above each the food hopper and on the ceiling. The central platform measured 30.5 cm in diameter with eight arms (9 cm W×45.7 cm L×16.8 cm H) radiating from it. Automatic guillotine doors were located at the entrance to each runway with a pellet receptacle at the distal end of each arm. White noise will be audible during all training and testing procedures. Activity on the maze was monitored by tracking quantitative activity (generated by infra-red beam breaks) on the computer interface and monitor screen.
Following the baseline assessment and after re-attainment test session criterion, animals were assessed for their sensitivity to chemically-induced cognitive impairment using the muscarinic antagonist scopolamine (0.2-0.4 mg/kg; s.c.). A dose of scopolamine was determined for each animal based on the minimum dose that produced significant and reliable cognitive impairment. […]

CYP2D6 = CYP2D6 (Homo sapiens, UniProt P10635); type: in vitro ADME
CYP2C9 = CYP2C9 (Homo sapiens, UniProt P11712); type: in vitro ADME
[3] = biological target: T2, human recombinant α4β2 nicotinic receptors (Homo sapiens, UniProt P17787+P43681); assay: Radioligand binding, human recombinant α4β2 in SH-EP1 cellular membranes
T2 construct: expressed in transfected cells; host or cells: SH-EP1
Method: Preparation of membranes from SH-EP1/human α4β2 clonal cells: Cell pellets from 40 150 mm culture dishes were pooled, and homogenized by Polytron (Kinematica GmbH, Switzerland) in 20 milliliters of ice-cold preparative buffer. […] The resulting pellet was re-suspended in 20 mL of ice-cold preparative buffer and stored at −20° C.
Assay. On the day of the assay, the frozen membranes were thawed and spun at 48,000×g for 20 min. The supernatant was decanted and discarded. The pellet was resuspended in Dulbecco's phosphate buffered saline (PBS, Life Technologies) pH 7.4 and homogenized with the Polytron for 6 seconds. Protein concentrations were determined using a Pierce BCA Protein Assay Kit, with bovine serum albumin as the standard (Pierce Chemical Company, Rockford, Ill.).
Incubation was terminated by rapid filtration on a multi-manifold tissue harvester (Brandel, Gaithersburg, Md.) using GF/B filters presoaked in 0.33% polyethyleneimine (w/v) to reduce non-specific binding. Tissue was rinsed 3 times in PBS, pH 7.4. […] Filters were then counted to determine radioactivity bound to the membranes by liquid scintillation counting (2200CA Tri-Carb LSC, Packard Instruments, 50% efficiency or Wallac Trilux 1450 MicroBeta, 40% efficiency, Perkin Elmer).
Data were expressed as disintegrations per minute (DPMs). […]

CYP1A2 = CYP1A2 (Homo sapiens, UniProt P05177); type: in vitro ADME
panel of 65 receptors = assay: Multiple receptor screening assay; type: binding; settings: single concentration of 10 μM
Method: (R)-3-((E)-2-(Pyrrolidin-3-yl)vinyl)-5-(tetrahydropyran-4-yloxy)pyridine or a salt thereof was tested for selectivity against a panel of 65 receptors.

Sequence of α4β2 (P43681 29-627 limits assumed): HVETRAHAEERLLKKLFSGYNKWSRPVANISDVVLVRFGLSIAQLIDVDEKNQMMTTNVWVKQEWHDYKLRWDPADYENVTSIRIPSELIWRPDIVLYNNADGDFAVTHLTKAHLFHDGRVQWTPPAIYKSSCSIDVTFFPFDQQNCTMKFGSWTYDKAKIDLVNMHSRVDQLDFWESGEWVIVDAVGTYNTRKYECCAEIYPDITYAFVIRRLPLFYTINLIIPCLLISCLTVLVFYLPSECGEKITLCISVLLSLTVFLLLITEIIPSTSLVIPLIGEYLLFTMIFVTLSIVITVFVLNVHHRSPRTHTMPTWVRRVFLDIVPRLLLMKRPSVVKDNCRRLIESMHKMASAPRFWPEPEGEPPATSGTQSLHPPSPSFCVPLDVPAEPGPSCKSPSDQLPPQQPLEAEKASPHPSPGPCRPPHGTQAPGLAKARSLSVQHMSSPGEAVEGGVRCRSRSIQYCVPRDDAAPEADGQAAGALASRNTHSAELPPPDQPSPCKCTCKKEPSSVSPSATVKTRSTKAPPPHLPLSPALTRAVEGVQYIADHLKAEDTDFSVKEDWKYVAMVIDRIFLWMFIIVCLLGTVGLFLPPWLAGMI
Sequence of α4β2 (P17787 26-502): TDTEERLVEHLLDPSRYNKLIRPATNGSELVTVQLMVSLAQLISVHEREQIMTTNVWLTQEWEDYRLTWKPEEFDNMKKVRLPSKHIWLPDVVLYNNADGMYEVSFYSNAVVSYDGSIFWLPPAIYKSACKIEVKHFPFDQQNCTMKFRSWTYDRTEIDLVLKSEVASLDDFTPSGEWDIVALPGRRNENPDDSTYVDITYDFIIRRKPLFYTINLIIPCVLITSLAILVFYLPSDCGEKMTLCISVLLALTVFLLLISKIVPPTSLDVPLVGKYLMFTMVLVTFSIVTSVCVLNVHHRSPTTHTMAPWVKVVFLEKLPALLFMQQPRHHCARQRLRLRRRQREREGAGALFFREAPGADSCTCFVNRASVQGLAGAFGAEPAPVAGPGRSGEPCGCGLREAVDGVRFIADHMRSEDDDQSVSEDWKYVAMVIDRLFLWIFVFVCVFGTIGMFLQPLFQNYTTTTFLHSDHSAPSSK
T1 sequence (P02708 21-457): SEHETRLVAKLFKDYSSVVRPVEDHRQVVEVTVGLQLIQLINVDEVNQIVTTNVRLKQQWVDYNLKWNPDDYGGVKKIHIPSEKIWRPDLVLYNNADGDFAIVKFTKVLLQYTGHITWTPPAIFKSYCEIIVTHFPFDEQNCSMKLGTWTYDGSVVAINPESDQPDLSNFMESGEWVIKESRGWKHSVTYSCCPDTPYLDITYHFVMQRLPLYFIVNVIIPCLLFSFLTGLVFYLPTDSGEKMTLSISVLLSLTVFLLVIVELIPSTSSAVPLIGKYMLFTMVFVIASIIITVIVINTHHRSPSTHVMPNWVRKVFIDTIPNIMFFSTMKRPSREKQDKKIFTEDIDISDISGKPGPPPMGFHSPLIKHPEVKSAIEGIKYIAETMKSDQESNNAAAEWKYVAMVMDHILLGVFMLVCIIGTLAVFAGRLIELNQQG
T1 sequence (P11230 24-501 partner): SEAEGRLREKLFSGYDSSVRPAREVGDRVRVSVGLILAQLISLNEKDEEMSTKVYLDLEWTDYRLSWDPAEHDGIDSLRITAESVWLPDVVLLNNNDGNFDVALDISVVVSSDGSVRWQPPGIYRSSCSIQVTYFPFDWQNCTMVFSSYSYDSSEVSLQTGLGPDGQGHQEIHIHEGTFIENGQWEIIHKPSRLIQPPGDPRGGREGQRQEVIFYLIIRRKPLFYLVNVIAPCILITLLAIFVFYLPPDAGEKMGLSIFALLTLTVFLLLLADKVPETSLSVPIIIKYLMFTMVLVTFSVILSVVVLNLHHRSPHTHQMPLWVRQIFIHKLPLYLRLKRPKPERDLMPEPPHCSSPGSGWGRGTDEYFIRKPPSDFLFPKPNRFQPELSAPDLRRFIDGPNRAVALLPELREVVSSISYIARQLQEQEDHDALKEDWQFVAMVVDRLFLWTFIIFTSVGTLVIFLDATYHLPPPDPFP
T1 sequence (P07510 23-517): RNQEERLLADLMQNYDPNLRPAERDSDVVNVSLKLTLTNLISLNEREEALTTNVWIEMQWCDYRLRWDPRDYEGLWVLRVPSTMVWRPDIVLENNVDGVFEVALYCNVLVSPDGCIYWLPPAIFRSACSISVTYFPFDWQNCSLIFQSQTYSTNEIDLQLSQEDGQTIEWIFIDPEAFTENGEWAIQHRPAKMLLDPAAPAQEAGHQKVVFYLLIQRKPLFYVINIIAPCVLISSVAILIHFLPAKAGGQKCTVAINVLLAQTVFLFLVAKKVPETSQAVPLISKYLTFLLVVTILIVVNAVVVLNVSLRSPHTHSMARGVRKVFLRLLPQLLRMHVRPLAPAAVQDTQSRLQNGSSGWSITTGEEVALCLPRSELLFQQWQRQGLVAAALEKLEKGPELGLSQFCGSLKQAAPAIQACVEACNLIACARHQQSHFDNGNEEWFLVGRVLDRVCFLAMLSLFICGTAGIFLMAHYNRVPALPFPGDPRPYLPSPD
T1 sequence (Q07001 22-517): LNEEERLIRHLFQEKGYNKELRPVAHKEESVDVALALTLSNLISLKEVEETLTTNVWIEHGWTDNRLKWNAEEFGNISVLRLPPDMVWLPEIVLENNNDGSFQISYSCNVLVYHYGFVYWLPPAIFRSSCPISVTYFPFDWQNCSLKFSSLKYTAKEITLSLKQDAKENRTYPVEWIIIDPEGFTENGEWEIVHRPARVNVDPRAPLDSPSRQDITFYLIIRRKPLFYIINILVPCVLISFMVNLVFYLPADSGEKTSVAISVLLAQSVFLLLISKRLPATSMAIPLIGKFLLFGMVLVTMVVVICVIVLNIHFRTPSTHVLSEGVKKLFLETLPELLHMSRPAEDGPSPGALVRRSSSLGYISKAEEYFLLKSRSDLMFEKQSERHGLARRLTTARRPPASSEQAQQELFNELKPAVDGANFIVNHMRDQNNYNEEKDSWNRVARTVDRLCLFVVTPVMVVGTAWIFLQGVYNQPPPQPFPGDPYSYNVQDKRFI
Sequence of CYP2D6 (P10635 whole entry): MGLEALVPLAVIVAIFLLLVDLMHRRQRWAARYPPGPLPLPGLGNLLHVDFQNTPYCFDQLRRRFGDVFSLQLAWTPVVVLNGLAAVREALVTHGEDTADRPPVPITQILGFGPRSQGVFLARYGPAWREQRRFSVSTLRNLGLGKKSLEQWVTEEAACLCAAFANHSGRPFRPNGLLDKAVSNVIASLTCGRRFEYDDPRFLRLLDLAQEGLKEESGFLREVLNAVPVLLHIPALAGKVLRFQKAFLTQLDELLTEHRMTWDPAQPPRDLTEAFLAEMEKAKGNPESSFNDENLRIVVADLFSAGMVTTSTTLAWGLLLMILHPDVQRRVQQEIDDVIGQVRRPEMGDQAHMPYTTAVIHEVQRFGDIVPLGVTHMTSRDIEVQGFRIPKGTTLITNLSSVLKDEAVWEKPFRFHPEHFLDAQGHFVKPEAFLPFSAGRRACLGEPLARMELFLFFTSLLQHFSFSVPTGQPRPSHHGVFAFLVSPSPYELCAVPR
Sequence of CYP1A2 (P05177 whole entry): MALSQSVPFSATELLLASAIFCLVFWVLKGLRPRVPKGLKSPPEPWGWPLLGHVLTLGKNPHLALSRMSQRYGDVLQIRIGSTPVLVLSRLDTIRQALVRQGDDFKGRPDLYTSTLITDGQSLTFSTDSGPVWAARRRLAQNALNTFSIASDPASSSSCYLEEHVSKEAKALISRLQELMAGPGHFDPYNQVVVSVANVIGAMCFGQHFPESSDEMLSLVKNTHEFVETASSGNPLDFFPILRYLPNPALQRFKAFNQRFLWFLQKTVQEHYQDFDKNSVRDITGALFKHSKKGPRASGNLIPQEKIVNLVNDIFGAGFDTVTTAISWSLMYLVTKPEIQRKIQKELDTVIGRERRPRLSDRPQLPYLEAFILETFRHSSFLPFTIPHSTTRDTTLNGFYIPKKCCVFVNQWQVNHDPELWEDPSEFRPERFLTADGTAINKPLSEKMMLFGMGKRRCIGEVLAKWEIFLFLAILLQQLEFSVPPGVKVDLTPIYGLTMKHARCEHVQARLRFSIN
T2 sequence (P43681 29-627 limits assumed): as the sequence (P43681 29-627 limits assumed) above
T2 sequence (P17787 26-502): as the sequence (P17787 26-502) above
Sequence of CYP2B6 (P20813 whole entry): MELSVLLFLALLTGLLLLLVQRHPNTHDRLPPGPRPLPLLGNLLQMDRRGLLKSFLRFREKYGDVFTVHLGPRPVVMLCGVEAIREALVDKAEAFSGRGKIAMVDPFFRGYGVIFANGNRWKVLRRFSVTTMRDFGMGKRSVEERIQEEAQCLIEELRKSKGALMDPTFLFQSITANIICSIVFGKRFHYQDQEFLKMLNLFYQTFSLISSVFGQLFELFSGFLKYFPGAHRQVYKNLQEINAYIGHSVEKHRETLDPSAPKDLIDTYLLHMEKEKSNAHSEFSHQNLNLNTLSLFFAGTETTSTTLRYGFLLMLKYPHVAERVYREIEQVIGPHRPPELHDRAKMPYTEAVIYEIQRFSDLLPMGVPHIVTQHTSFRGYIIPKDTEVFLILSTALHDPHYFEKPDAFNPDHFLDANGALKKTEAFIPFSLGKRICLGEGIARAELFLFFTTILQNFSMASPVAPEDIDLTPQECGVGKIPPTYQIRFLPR

C(=C\[C@H]1CCNC1)/c1cncc(OC2CCOCC2)c1 [Compound A, (R)-3-((E)-2-(pyrrolidin-3-yl)vinyl)-5-(tetrahydropyran-4-yloxy)pyridine]
pEC50 [1]: 4.89 | Human (TE671/RD) muscle Emax (Ca flux) ([1]; TE-671 cells): μM, 37% | Emax ([1]; TE-671 cells, read-out: Human (TE671/RD) muscle Emax (Ca flux)): 37% | time-dependent inhibition of CYP2B6 (CYP2B6): no evidence of time-dependent inhibition | pEC50 (α4β2): 7.00 | Emax (α4β2; SH-EP1, read-out: Human recombinant (SH-EP 1) α4β2 Emax (Ca flux)): 76% | Human recombinant (SH-EP 1) α4β2 Emax (Ca flux) (α4β2; in relation to 10 μM nicotine, 24-h incubation at 29° C.): μM, 76% | RAM effect on scopolamine-induced cognitive deficits [2]: overcomes scopolamine induced deficits | RAM effect on scopolamine-induced cognitive deficits ([2]; listed as (R)-3-((E)-2-(Pyrrolidin-3-yl)vinyl)-5-(tetrahydropyran-4-yloxy)pyridine): able to reverse scopolamine-induced cognitive deficits | time-dependent inhibition of CYP2D6 (CYP2D6): no evidence of time-dependent inhibition | time-dependent inhibition of CYP2C9 (CYP2C9): no evidence of time-dependent inhibition | pKi [3]: 8.70 | time-dependent inhibition of CYP1A2 (CYP1A2): no evidence of time-dependent inhibition | Multiple receptor screening assay, receptors hit (panel of 65 receptors): only to neuronal nicotinic receptors (α-BnTx insensitive) | Multiple receptor screening assay, receptors hit (panel of 65 receptors; listed as (R)-3-(2-(pyrrolidin-3-yl)vinyl)-5-((tetrahydro-2H-pyran-4 yl)oxy)pyridine): Only nicotinic

From patent US8153821B2, “Compounds” (priority 2008, dated 2012)
